From US20200339544A1 (JOINT STOCK COMPANY "BIOCAD", priority 2017, published 2020)
pIC50: −log10 of the molar value. Where two headings read alike, the source gives them in different places. Marks after values point to notes of the source that are not given here.

Columns and labels:
[1] = Chemical stability in human blood plasma; assay type: in vitro ADME; conditions: pooled human blood plasma; 10 μm; 4 hours at 37° C.; substance amount remaining
Method: 2) Determination of chemical stability in human blood plasma.
Determination of stability in human blood plasma was performed using pooled human blood plasma taken from ten healthy donors. The initial candidate solution (10 mM in DMSO) was diluted with pooled blood plasma to a concentration of 10 μm (test solution). The test solution was incubated in a dry block thermostat for 4 hours at 37° C. HPLC with Agilent 1200 liquid chromatography system (Agilent, USA) was employed to determine peak areas of the compounds in test samples, said peak areas corresponding to the initial test time (prior to incubation) and the final test time (after incubation in a dry block thermostat for 4 hours at 37° C.), proteins were preliminarily precipitated with acetonitrile. We used gradient elution (1 mL/min flow rate). Substance amount in % in a sample after thermostatting was determined.
The stability of the compounds was estimated.

[2] = Enzyme stability in human liver S9 fractions; assay type: in vitro ADME; conditions: 0.5 mg/mL pooled human liver S9 fractions; 10 μM compound; 37° C.; pH 7.4; read-out: Stability in liver S9 fractions, Clint
Method: Determination of enzyme stability.
Measuring of candidate enzyme stability enabled estimation of the stability of the compounds towards the action of liver enzymes.
Enzyme degradation rate was measured by incubating the reaction mixture in a dry block thermostat at 37° C., said reaction mixture comprising 0.5 mg/mL of pooled human liver S9 fractions (XenoTech, USA, cat # H0610), 10 μM compound, 2 mM β-nicotinamide adenine dinucleotide (Carbosynth, UK, cat # NN10871) and 4 mM magnesium chloride in 0.1 M sodium-phosphate buffer, pH=7.4. The reaction was quenched with acetonitrile (100 μL of acetonitrile/100 μL of the reaction mixture). After quenching, the samples were centrifuged at 10000 rpm for 10 minutes. Supernatant fluid was tested by chromatographic technique using Agilent1200 (Agilent, USA). We used gradient elution (1 mL/min flow rate). A graph of the logarithm of substance's peak area as a function of time was made. The dependent factor of the line corresponded to the elimination rate constant K based on which the drug's half-life T½ and intrinsic clearance CLint were calculated:
Based on the data obtained, candidate enzyme stability in human liver S9 fractions was determined (see Table 11).

[3] = target: T1, WT EGFR (Wild-Type EGFR) (Homo sapiens, UniProt P00533); experiment: Inhibition of WT EGFR kinase activity (ADP-Glo); assay type: biochemical
T1 construct: purchased SignalChem
Method: (§1) To assess IC50 values of the compounds disclosed herein, a biochemical assay of inhibition of kinase activity in a non-cellular system and a functional cellular anti-proliferation assay were used.
(§2) To assess inhibition of WT EGFR (Wild-Type EGFR), DM EGFR (DoubleMutantEGFR, L828R/T790M) kinase activity, SignalChem kinase system and ADP-Glo™ Kinase Assay (V9102, Promega) detection kit were used.
(§3) The measurements were carried out in a 25 μL reaction volume using a 96-well plate. […] The solution of 0.5 mg/mL peptide substrate and 50 μM ATP in the same buffer were added; the solution was incubated for 180 minutes at 37° C. To detect the amount of ATP taken up during the kinase reaction, the ADP Glo Detection Kit (V9102, Promega) was used. The luminescence was measured with the Infinite M200Pro plate spectrophotometer (Tecan, Switzerland). IC50 values were calculated using Magellan 7.2 software (Tecan, Switzerland) approximating experimental points by four-parameter logistic model with the optimization by Levenberg-Marquardt (Table 14).

[4] = target: T2, DM EGFR (DoubleMutantEGFR, L828R/T790M) (Homo sapiens, UniProt P00533, L858R/T790M); experiment: Inhibition of DM EGFR kinase activity (ADP-Glo); assay type: biochemical; conditions: for pIC50: inhibition of kinase activity, EGFR DM (L828R/T790M); for SI, IC50(WT)/IC50(DM): selectivity index, kinase EGFR WT vs EGFR DM
T2 construct: purchased SignalChem
Method: as §1, §2, §3

[5] = system: A549 (lung adenocarcinoma, WT); experiment: Antiproliferative activity on A549 cells (Alamar Blue); assay type: cell-based; conditions: Homo sapiens, antiproliferative test
Method: (§4) Antiproliferative activity of EGFR inhibitors (Tables 15 and 16) was measured in cell-based bioassay on continuous epithelial cell cultures: A549 (lung adenocarcinoma, ATCC® CRM-CCL-185™—WT), HCC827 (lung adenocarcinoma, ATCC® CRL-2868™—SM (SingleMutantEGFR, exon19delE746-A750)) and H1975 (lung adenocarcinoma, ATCC® CRL-5908™—DM (DoubleMutantEGFR, L828R/T790M)) using cell viability reagent Alamar Blue (ThermoFisher, # DAL1100). Cells were cultured in 10% FBS-supplemented (Gibco, #16140071) RPMI-1640 (PanEco, S330p) for at least 1 passage after thawing, washed with PBS and passaged in 96-well culture plates (3599, Corning) with RPMI-1640 growth medium supplemented with 2% FBS in an amount of 5*10^3 cells/well for A549, 10*10^3 cells/well for HCC827 and 15*10^3 cells/well for H1975 in 100 μL, and incubated at 37° C. in an incubator (Thermo Forma, USA) under 5% of CO2 for 16-18 h for cell attachment.
(§5) The test compounds were dissolved in DMSO in the selected range of concentrations and transferred to RPMI-1640 medium (PanEco, S330p) supplemented with 2% FBS. After adding 50 μl of the prepared dilutions to the cells, the incubation mixture contained the final concentrations of the test substances and no more than 1% DMSO. The plates were Incubated at 37° C. for 72 h. After incubation, 15 μl of Alamar Blue vital dye (ThermoFisher, # DAL1100) was added to each well. The plates were shaken on an orbital shaker (Biosan, Latvia) and further incubated for 3-5 h in a CO2 incubator (Thermo Forma, USA). Number of living cells was estimated using a plate spectrophotometer Infinite M200Pro, (Tecan, Switzerland) measuring fluorescent signal at the excitation wavelength (λEx) of 540 nm and emission wavelength (λEm) of 590 nm.
IC50 was calculated using Magellan 7.2 software (Tecan, Switzerland) approximating experimental points by four-parameter logistic model with the optimization by Levenberg-Marquardt.
(§6) The ratio between IC50 for cell lines containing wild-type EGFR (A549) and IC50 for cell lines containing target mutation L828R/T790M (H1975) is the selectivity index (SI): […]

[6] = system: H1975 (lung adenocarcinoma, DM, L828R/T790M); experiment: Antiproliferative activity on H1975 cells (Alamar Blue); assay type: cell-based; conditions: for pIC50: Homo sapiens, NCI-H1975, H1975 cells; for SI IC50(A549)/IC50(DM): selectivity index, A549 vs H1975 cells
Method: as §4, §5
IC50 was calculated using Magellan 7.2 software (Tecan, Switzerland) approximating experimental points by four-parameter logistic model with the optimization by Levenberg-Marquardt. […]
as §6

[7] = General cytotoxicity on HepG2 cells; assay type: cell-based; conditions: human; general cytotoxicity, HepG2 cells, 72 hours, average of several tests
Method: (§7) The CC50 values were determined in the test for General cytotoxicity on HepG2 cells (rhepatocellular carcinoma, ATCC® HB-8065™) (Table 16). The cells were subcultured in DMEM medium (PanEco, S420p) supplemented with 10% FBS (Gibco, #16140071) for at least 1 passage after thawing, washed with PBS and passaged in 96-well culture plates (3599, Corning) at a concentration of 2*10^4 cells/100 μL per well, and incubated for 16-18 h. The test substances were titrated in DMSO and transferred to DMEM (PanEco, S420p) medium supplemented with 2% FBS, added to the cells and incubated at 37° C. for 72 hours; viability of the cells was then assessed using Alamar Blue dye (ThermoFisher, # DAL1100). CC50 was determined similarly to IC50.
(§8) The ratio between CC50 for HepG2 cell line and IC50 for H1975 cell line is the therapeutic index (TI): […]

[8] = system: HepG2 cells; experiment: General cytotoxicity on HepG2 cells; assay type: cell-based; conditions: therapeutic index, CC50 HepG2 / IC50 H1975
Method: as §7, §8

[9] = average values obtained in several tests, Table 16, read-out: H1975 (DM) IC50
[10] = antiproliferative test, Table 15, read-out: IC50 H1975 (DM)

SMILES	Stability in blood plasma, % [1]	Intrinsic clearance in human liver S9 fractions at 10 µM [2]	pIC50 [3]	pIC50 [4]	SI, IC50(WT)/IC50(DM) [4]	pIC50 [5]	pIC50 [6, 9]	pIC50 [6, 10]	SI IC50(A549)/IC50(DM) [6]	CC50 at 72 h [7]	TI, CC50/IC50 [8]
C=CC(=O)Nc1cc(Nc2nccc(C(=O)c3ccc(OC)cc3OC(C)C)n2)c(OC)cc1N(C)CCN(C)C [EGFR_3365_104]	77.2%	21.8 µL/min/mg	6.95	8.19	17.61	5.42	6.59	6.59	15	18700 nM	73
C=CC(=O)Nc1cc(Nc2nccc(C(=O)c3ccc(NCCOC)cc3)n2)c(OC)cc1N(C)CCN(C)C [EGFR_3365_105, N-(2-((2-(dimethylamino)ethyl)(methyl)amino)-4-methoxy-5-((4-(4-((2-methoxyethyl)amino)benzoyl)pyrimidin-2-yl)amino)phenyl)acrylamide]	89.4%	11.3 µL/min/mg	6.96	8.53	37.17	4.08	7.67	7.67	3898	45600 nM	2114
C=CC(=O)Nc1cc(Nc2nccc(C(=O)c3ccc(NCCO)cc3)n2)c(OC)cc1N(C)CCN(C)C.O=CO [EGFR_3365_106, N-(2-((2-(dimethylamino)ethyl)(methyl)amino)-5-((4-(4-((2-hydroxyethyl)amino)benzoyl)pyrimidin-2-yl)amino)-4-methoxyphenyl)acrylamide formate]	95.2%	6.7 µL/min/mg	6.97	8.26	19.68	< 4.70	7.48	7.48	>601	> 50000 nM	>1501**
C=CC(=O)Nc1cc(Nc2nccc(C(=O)c3ccc(N4CCC[C@H](O)C4)cc3)n2)c(OC)cc1N(C)CCN(C)C [EGFR_3365_108, (S)-N-(2-((2-(dimethylamino)ethyl)(methyl)amino)-5-((4-(4-(3-hydroxypiperidin-1-yl)benzoyl)pyrimidin-2-yl)amino)-4-methoxyphenyl)acrylamide]	100.0%	12.8 µL/min/mg	7.59	8.77	14.85	4.67	8.36	8.36	4925	47900 nM	11026
C=CC(=O)Nc1cc(Nc2nccc(C(=O)c3ccc(N4CCC[C@@H](O)C4)cc3)n2)c(OC)cc1N(C)CCN(C)C [EGFR_3365_109, (R)-N-(2-((2-(dimethylamino)ethyl)(methyl)amino)-5-((4-(4-(3-hydroxypiperidin-1-yl)benzoyl)pyrimidin-2-yl)amino)-4-methoxyphenyl)acrylamide]	98.2%	14.8 µL/min/mg	7.60	8.50	8.03	4.75	8.06	8.06	2043	45400 nM	5245
C=CC(=O)Nc1cc(Nc2nccc(C(=O)c3ccc(N4CC[C@H](O)C4)cc3)n2)c(OC)cc1N(C)CCN(C)C.O=CO [EGFR_3365_112, (S)-N-(2-((2-(dimethylamino)ethyl)(methyl)amino)-5-((4-(4-(3-hydroxypyrrolidin-1-yl)benzoyl)pyrimidin-2-yl)amino)-4-methoxyphenyl)acrylamide formate]	96.9%	6.8 µL/min/mg	7.63	8.69	11.48	4.43	7.82	7.82	2443	> 50000 nM	>3267
